Measurements from PubChem BioAssay AID1919001 (Molecular Pharmacology Branch, DTP, NCI, 2023).
Values joined by “and” are separate entries in the source; they are usually repeats but may differ in a detail not shown here. Identical values can stand only once.

Tested on: 699152-130-R-J1-PDC complex spheroid growth
Assay: Anticancer human tumor 699152-130-R-J1-PDC patient-derived pancreatic carcinoma cell line growth inhibition [AhR]
Conditions: for viability, T/C: stronger effect = lower value
In short: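 Agents were dosed in half-log steps down from roughly clinical Cmax, or from 10 microM where Cmax was unknown, alone and with AhR antagonists. Read-out: percent test/control growth of tumor spheroids containing HUVEC and MSC stromal cells.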

[1] = curve of first compound, second compound 0.1 µM
[2] = curve of first compound, second compound 0.316 µM
[3] = curve of first compound, second compound 1 µM
[4] = curve of first compound, second compound 3.16 µM
[5] = curve of first compound, second compound 10 µM
[6] = second compound 0.1 µM, first compound 0.0316 µM
[7] = second compound 0.1 µM, first compound 0.1 µM
[8] = second compound 0.1 µM, first compound 0.316 µM
[9] = second compound 0.1 µM, first compound 1 µM
[10] = second compound 0.1 µM, first compound 3.16 µM
[11] = second compound 0.1 µM, first compound 10 µM
[12] = second compound 0.316 µM, first compound 0.0316 µM
[13] = second compound 0.316 µM, first compound 0.1 µM
[14] = second compound 0.316 µM, first compound 0.316 µM
[15] = second compound 0.316 µM, first compound 1 µM
[16] = second compound 0.316 µM, first compound 3.16 µM
[17] = second compound 0.316 µM, first compound 10 µM
[18] = second compound 1 µM, first compound 0.0316 µM
[19] = second compound 1 µM, first compound 0.1 µM
[20] = second compound 1 µM, first compound 0.316 µM
[21] = second compound 1 µM, first compound 1 µM
[22] = second compound 1 µM, first compound 3.16 µM
[23] = second compound 1 µM, first compound 10 µM
[24] = second compound 3.16 µM, first compound 0.0316 µM
[25] = second compound 3.16 µM, first compound 0.1 µM
[26] = second compound 3.16 µM, first compound 0.316 µM
[27] = second compound 3.16 µM, first compound 1 µM
[28] = second compound 3.16 µM, first compound 3.16 µM
[29] = second compound 3.16 µM, first compound 10 µM
[30] = second compound 10 µM, first compound 0.0316 µM
[31] = second compound 10 µM, first compound 0.1 µM
[32] = second compound 10 µM, first compound 0.316 µM
[33] = second compound 10 µM, first compound 1 µM
[34] = second compound 10 µM, first compound 3.16 µM
[35] = second compound 10 µM, first compound 10 µM
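Note: compound exposure lasted 7 days after spheroids had grown for 3 days.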

IC50 [1] [µM] | IC50 [2] [µM] | IC50 [3] [µM] | IC50 [4] [µM] | IC50 [5] [µM] | SMILES | viability, T/C [6] [%] | viability, T/C [7] [%] | viability, T/C [8] [%] | viability, T/C [9] [%] | viability, T/C [10] [%] | viability, T/C [11] [%] | viability, T/C [12] [%] | viability, T/C [13] [%] | viability, T/C [14] [%] | viability, T/C [15] [%] | viability, T/C [16] [%] | viability, T/C [17] [%] | viability, T/C [18] [%] | viability, T/C [19] [%] | viability, T/C [20] [%] | further results
> 10 | > 10 | > 10 | > 10 | < 0.0316 | O=C(c1cc(Cc2n[nH]c(=O)c3ccccc23)ccc1F)N1CCN(C(=O)C2CC2)CC1 + Cc1cncc(-c2nc(NCCc3c[nH]c4ccccc34)c3ncn(C(C)C)c3n2)c1 | 119 | 104 | 105 | 97.6 | 120 | 82.9 | 104 | 101 | 111 | 105 | 95.3 | 90 | 119 | 120 | 119 | viability, T/C [21]: 116%; viability, T/C [22]: 107%; viability, T/C [23]: 106%; viability, T/C [24]: 96.8%; viability, T/C [25]: 93.7%; viability, T/C [26]: 89.7%; viability, T/C [27]: 90%; viability, T/C [28]: 95.1%; viability, T/C [29]: 93.4%; viability, T/C [30]: 9.79%; viability, T/C [31]: 10.4%; viability, T/C [32]: 12.8%; viability, T/C [33]: 11.7%; viability, T/C [34]: 11.9%; viability, T/C [35]: 15.3%
 |  |  |  |  | NS(=O)(=O)OCC1CC(n2ccc3c(NC4CCc5ccccc54)ncnc32)CC1O (configuration not stated) |  |  |  |  |  |  |  |  |  |  |  |  |  |  |  | viability, T/C (compound 0.0316 µM): 96.1% and 125% and 117%; viability, T/C (compound 0.1 µM): 123% and 111% and 125%; viability, T/C (compound 0.316 µM): 127% and 113% and 129%; viability, T/C (compound 1 µM): 67.1% and 38% and 43.2%; viability, T/C (compound 3.16 µM): 18.2% and 19.7% and 24.9%; viability, T/C (compound 10 µM): 20.3% and 24% and 29.6%; IC50 (curve of compound): 1.51 µM and 0.832 µM and 0.802 µM
> 10 | > 10 | > 10 | > 10 | < 0.0316 | CC(C)c1c(-c2ccccc2)nc2c(C#N)c[nH]n2c1=O + Cc1cncc(-c2nc(NCCc3c[nH]c4ccccc34)c3ncn(C(C)C)c3n2)c1 | 98.9 | 103 | 101 | 107 | 107 | 111 | 104 | 109 | 101 | 116 | 96.4 | 96.8 | 118 | 118 | 121 | viability, T/C [21]: 125%; viability, T/C [22]: 108%; viability, T/C [23]: 101%; viability, T/C [24]: 60.4%; viability, T/C [25]: 66.4%; viability, T/C [26]: 65%; viability, T/C [27]: 58.9%; viability, T/C [28]: 58.2%; viability, T/C [29]: 66.4%; viability, T/C [30]: 4.82%; viability, T/C [31]: 4.89%; viability, T/C [32]: 5.56%; viability, T/C [33]: 4.11%; viability, T/C [34]: 4.63%; viability, T/C [35]: 6.54%
